{"source": "patent US11254700B2", "about": "“GSK-3β inhibitors and use thereof in methods of treatment” (UNIVERSITY OF HAWAII, priority 2017, dated 2022)", "key": {"[1]": {"test_system": "Aβ plaques and Iba1-positive microglia", "assay": "Immunofluorescence labeling (Aβ+IBA1)", "type": "in vivo, mouse", "settings": "APP/PS1 mice", "description": "The backgrounds of all mice (APP/PS1 dual transgenic mice and wild-type mice with littermates) were C57/B6. Transgenic mice were randomly divided into three groups (n=20 for each group), and wild-type mice were used as controls (n=20). The control group and one group of transgenic mice (model group) were given sterilized ultrapure water, and the other two groups of transgenic mice received low- and high-dose Isoorientin (20 and 50 mg/kg, respectively) via intragastric administration for 60 days. Throughout the study-period, animals were housed in a controlled environment (temperature, 22° C.; humidity, 50-60%, 12-hour light/12-hour dark schedules), with free access to rodent chow and water. After a Morris water maze test, mice were perfused with cold phosphate-buffered saline (PBS), brain tissues were dissected and kept frozen at −80° C. until further analysis. […] Double-labelling procedures were performed to determine the relationship between Iba1-positive and Aβ-positive plaques. […] Sections were then blocked with 5% BSA in 0.01% TRITON X-100 in TBS (TBST) for 1 hour at room temperature. […] Representative images were obtained by fluorescence microscope (Leica)."}, "[2]": {"test_system": "SH-SY5Y cells treated with Aβ42 oligomers", "assay": "Anti-Aβ42 neurotoxicity assay", "type": "cell-based, human", "description": "Human neuroblastoma SH-SY5Y cell line (Sigma-Aldrich, Saint Louis, Mo.) was cultured in DMEM/F12 (v/v 1:1) media supplemented with 2 mM glutamine, 10% heat-inactivated fetal bovine serum (FBS) and 1% antibiotics including penicillin and streptomycin. After reaching 70-80% confluence, cells were then subcultured on poly-L-lysine plates with 10 μM retinoic acid in a reduced serum media (1% FBS) to promote neuronal maturation and differentiation as described (Agholme, et al. (2010) J. Alzheimer's Dis. 20: 1069-1082). Cell cultures were incubated at 37° C. in a fully humidified atmosphere containing 5% CO2.\nThe toxic oligomers of Aβ42 were prepared as described (Liang, et al. (2016) ACS Chem. Neurosci. 7:912-923). Briefly, lyophilized Aβ42 peptide was dissolved in hexafluoroisopropanol, dried under vacuum, and stored at −20° C. Immediately prior to use, the peptide residue was reconstituted in DMEM/F12 media to make a stock solution at 0.1 mM and incubated at 4° C. for 24 hours to form diffusible oligomers. Aβ42 oligomers at a final concentration of 10 μM were assayed for cell viability.\nSH-SY5Y cells were seeded at a density of 3×10^5 cells/mL in a 96-well plate in DMEM/F12 media containing 10 μM retinoic acid and 1% FBS to suppress cell proliferation. Cells were incubated under regular culture conditions for attachment. After 24 hours of plating, the cells were pretreated with different concentrations of test samples or the 0.2% DMSO as a vehicle control for 1 hour and then co-incubated with 10 μM Aβ42 for 72 hours. After the experimental treatment, the cells were subject to a […]® 96 AQueous One Solution Cell Proliferation […] Assay according to the manufacturer's instruction. […] Each data point was collected in triplicate of two independent experiments."}, "[3]": {"test_system": "TNFα, IL-2, IFN-γ, IL-4, IL-10", "assay": "Serum cytokines", "type": "in vivo, mouse", "settings": "APP/PS1 mice, vs model group", "description": "The backgrounds of all mice (APP/PS1 dual transgenic mice and wild-type mice with littermates) were C57/B6. Transgenic mice were randomly divided into three groups (n=20 for each group), and wild-type mice were used as controls (n=20). The control group and one group of transgenic mice (model group) were given sterilized ultrapure water, and the other two groups of transgenic mice received low- and high-dose Isoorientin (20 and 50 mg/kg, respectively) via intragastric administration for 60 days. Throughout the study-period, animals were housed in a controlled environment (temperature, 22° C.; humidity, 50-60%, 12-hour light/12-hour dark schedules), with free access to rodent chow and water. After a Morris water maze test, mice were perfused with cold phosphate-buffered saline (PBS), brain tissues were dissected and kept frozen at −80° C. until further analysis. […] T-cell-specific cytokines (Interferon-γ (IFN-γ), interleukin (IL)-2, IL-4, and IL-10) in mouse serum were also measured. Mouse Th17 Magnetic Bead Panel 96-Well Plate Assay was purchased from Millipore. The assay was performed in a 96-well plate and all reagents were prepared according to the Millipore instructions. Briefly, 200 μL of Wash Buffer was added into each well to pre-wet plate, Wash Buffer was decanted thoroughly and the plate was mixed on a plate shaker for 10 minutes at room temperature (25-27° C.). In accordance with the instructions of the kit, the appropriate reagents were added to the wells and the plate was sealed and incubated overnight at 4° C. in the dark. Plates were put on the magnetic support and each well was washed twice with 200 μl of wash buffer via a plate shaker at 450 rpm for 2 minutes at room temperature. After adding 5 μl of detection antibody to each well, the plate was sealed and incubated with agitation on a plate shaker for 1 hour at room temperature. […] Binding was assessed using a LUMINEX-200 instrument and xPONENT software. Serum samples were analyzed for IL4 and TNFα using a Mouse IL4 ELISA Kit and a Mouse TNFα ELISA Kit, respectively, according to the manufacturer's instructions. […]"}}, "data": [{"molecule": "O=c1cc(-c2ccc(O)c(O)c2)oc2cc(O)c([C@@H]3O[C@H](CO)[C@@H](O)[C@H](O)[C@H]3O)c(O)c12", "note": "[Compound 1, isoorientin]", "values": [{"measurement": "Aβ plaques in cortex and hippocampus", "setting": "[1]", "result": "reduced"}, {"measurement": "activated aggregated Iba1-positive cells around plaques", "setting": "[1]", "result": "also reduced"}, {"measurement": "EC50", "setting": "[2]; Homo sapiens, SH-SY5Y, 1 hour pretreatment, 10 μM Aβ42, 72 hours, read-out: neuroprotective potency EC50", "result": 47, "unit": "µM"}, {"measurement": "effective dose, morphological protection from Aβ42 intoxication", "setting": "[2]; morphological observations", "result": 200, "unit": "μM"}, {"measurement": "IFNγ in serum", "setting": "[3]", "result": "no statistical difference in the decrease"}, {"measurement": "anti-inflammatory factors (IL-4, IL-10) in serum", "setting": "[3]", "result": "significantly elevated"}, {"measurement": "pro-inflammatory factors (TNFα, IFNγ, IL-2) in serum", "setting": "[3]", "result": "slightly lower than those in the model group"}]}]}
